PubChem BioAssay AID1963860 (Molecular Pharmacology Branch, DTP, NCI, 2024)

Test system: CN0375-F725-PDC KRAS spheroid viability
Experiment: Anticancer human tumor CN0375-F725-PDC patient-derived colon carcinoma cell line growth inhibition [KRAS2]
Details: spheroids with HUVEC and MSC; for IC50: curve of first compound; for viability, T/C: stronger effect = lower value
Excerpt: Multicellular complex tumor spheroid response to RAS pathway inhibitors in combination with a targeted agents in patient-derived cell lines with oncogenic KRAS variants from multiple cancer types
A high-throughput screen of multi-cell type tumor spheroids was designed to identify active combinations of targeted small molecules and KRAS pathway inhibitors. Complex spheroids include a stromal component modeled by human endothelial cells (HUVEC) and fibroblasts modeled by human mesenchymal stem cells (MSCs). The concentration ranges selected for each drug and investigational agent were based upon clinically achievable concentrations if the clinical Cmax of the agent was known.
Compounds. The drugs and investigational agents: BI-3406 (NSC825286), BAY-293 (NSC824723), batoprotafib (TNO155; NSC825523), sotorasib (AMG 510; NSC818433), MRTX1257 (NSC819558), elimusertib (BAY 1895344; NSC800525), molibresib (GSK525762; NSC774829), temuterkib (LY3214996; NSC803410), venetoclax (NSC766270), alisertib (NSC759677), olaparib (NSC753686), talazoparib (NSC767125), erdafitinib (NSC781556), ipatasertib (NSC767898), cabozantinib (NSC761068), nintedanib (NSC756659), abemaciclib (NSC768073), docetaxel (NSC628503), trametinib (NSC758246), and sapanisertib (NSC764658) were obtained from the National Cancer Institute (NCI) Developmental Therapeutics Program Chemical Repository. The FDA-approved anticancer drug set is available from the Developmental Therapeutics Program. […] The stock solutions were prepared in dimethyl sulfoxide (DMSO, Sigma-Aldrich, St. Louis, MO, cat. D2650) at 800-fold the tested concentration and stored at -70 degrees C prior to their use. All drugs and investigational agents were tested over a range starting from a high concentration at or near the clinical Cmax and decreasing in half-log increments. If the clinical Cmax for an agent had not been determined, the highest concentration tested was 10 microM.
Cell Culture. All cells were maintained in an incubator at 37 degrees C and 5% CO2 with 95% humidity. The PDC lines were cultured according to standard operating procedures established by the NCI PDMR (https://pdmr.cancer.gov/sops/default.htm). Briefly, all PDCs were thawed and cultured in Matrigel-coated flasks prepared with a working solution of 1X Ham's F-12 nutrient mix, without supplementation (Invitrogen, Waltham, MA, cat. 11765054), 100 U/mL penicillin-streptomycin (Invitrogen, cat. 15140122), and 2.5% Matrigel (Corning Inc., Corning, NY, cat. 354248) for the first three passages. All PDCs were cultured in complete DMEM/F-12 media containing advanced DMEM/F-12 (Invitrogen, cat. 12634028), 4.9% defined fetal bovine serum, heat inactivated (HyClone Laboratories Inc., Logan, UT, cat. SH30070.03HI), 389 ng/mL hydrocortisone (Sigma-Aldrich, cat. H4001), 9.7 ng/mL human EGF recombinant protein (Invitrogen, cat. PHG0313), 23.4 microg/mL adenine (Sigma-Aldrich, cat. A2786), 97.3 U/mL penicillin-streptomycin (Invitrogen, cat. 15140122), 1.9 mM L-glutamine (Invitrogen, cat. 25030081), and 9.7 microM Y-27632 dihydrochloride (Tocris Bioscience, Bristol, United Kingdom, cat. 1254). The PDCs were cultured in complete DMEM/F12 media without 9.7 microM Y-27632 dihydrochloride for at least two passages prior to the screen. The established cell line HOP-62 was cultured in RPMI 1640 medium, HEPES (Invitrogen, cat. 22400105) with 10% defined fetal bovine serum (HyClone Laboratories Inc., cat. SH30070.03) and 2 mM L-glutamine (Invitrogen, cat. 25030081). The pooled donor HUVEC were cultured in endothelial cell growth medium 2 (PromoCell, Heidelberg, Germany, cat. C-22011) and the hMSC were cultured in mesenchymal stem cell growth medium 2 (PromoCell, cat. C-28009). For all experiments, HUVEC and hMSC were used at passages </=5, while the malignant cell lines were used at passages </=15. […]
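Further: spheroids exposed to agents for 7 days.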

Work on `COc1cc(Nc2ncc3c(n2)-c2ccc(Cl)cc2C(c2c(F)cccc2OC)=NC3)ccc1C(=O)O` + C=CC(=O)N1CCN(c2nc(=O)n(-c3c(C)ccnc3C(C)C)c3nc(-c4c(O)cccc4F)c(F)cc23)C(C)C1 yielded an IC50 (second compound 0.1 µM) greater than 10 µM, an IC50 (second compound 0.316 µM) greater than 10 µM and an IC50 (second compound 1 µM) greater than 10 µM. It also gave an IC50 (second compound 3.16 µM) greater than 10 µM, an IC50 (second compound 10 µM) greater than 10 µM and a viability, T/C (second compound 0.1 µM, first compound 0.0316 µM) of 105%. The viability, T/C (second compound 0.1 µM, first compound 0.1 µM) was 95.7%, the viability, T/C (second compound 0.1 µM, first compound 0.316 µM) was 89.3% and the viability, T/C (second compound 0.1 µM, first compound 1 µM) was 96.5%. The viability, T/C (second compound 0.1 µM, first compound 3.16 µM) was 95.5%, the viability, T/C (second compound 0.1 µM, first compound 10 µM) was 80.9% and the viability, T/C (second compound 0.316 µM, first compound 0.0316 µM) was 107%. The viability, T/C (second compound 0.316 µM, first compound 0.1 µM) was 104%, the viability, T/C (second compound 0.316 µM, first compound 0.316 µM) was 95% and the viability, T/C (second compound 0.316 µM, first compound 1 µM) was 96.5%. It also gave a viability, T/C (second compound 0.316 µM, first compound 3.16 µM) of 97%, a viability, T/C (second compound 0.316 µM, first compound 10 µM) of 80.5% and a viability, T/C (second compound 1 µM, first compound 0.0316 µM) of 104%. For the same compound, the viability, T/C (second compound 1 µM, first compound 0.1 µM) was 102%, the viability, T/C (second compound 1 µM, first compound 0.316 µM) was 97% and the viability, T/C (second compound 1 µM, first compound 1 µM) was 94.5%. It also gave a viability, T/C (second compound 1 µM, first compound 3.16 µM) of 94.6%, a viability, T/C (second compound 1 µM, first compound 10 µM) of 79.4% and a viability, T/C (second compound 3.16 µM, first compound 0.0316 µM) of 106%. For the same compound, the viability, T/C (second compound 3.16 µM, first compound 0.1 µM) was 105%, the viability, T/C (second compound 3.16 µM, first compound 0.316 µM) was 97.7% and the viability, T/C (second compound 3.16 µM, first compound 1 µM) was 94.2%. It also gave a viability, T/C (second compound 3.16 µM, first compound 3.16 µM) of 93.1%, a viability, T/C (second compound 3.16 µM, first compound 10 µM) of 85.3% and a viability, T/C (second compound 10 µM, first compound 0.0316 µM) of 105%. The viability, T/C (second compound 10 µM, first compound 0.1 µM) was 102%, the viability, T/C (second compound 10 µM, first compound 0.316 µM) was 97.2% and the viability, T/C (second compound 10 µM, first compound 1 µM) was 88.6%. For the same compound, the viability, T/C (second compound 10 µM, first compound 3.16 µM) was 85.7% and the viability, T/C (second compound 10 µM, first compound 10 µM) was 79.5%.
